Data on one compound can be found in US20240091324A1, “GASTROINTESTINAL HEALTH COMPOSITION” (priority 2019, published 2024).

Assay [1] has as its system TNBS colitis. Description: TNBS colitis mouse model with and without prednisolone, change in endoscopic score day 3 to day 11 (Example 12). The class given is in vivo, C56/BL/6 mice.
Protocol: Colitis was induced in C56/BL/6 mice and 3 days after disease induction daily treatments commenced.
Mice were induced with colitis by administering TNBS in the same manner as example 11. After three days the lesions were scored by endoscopy and the animals treated with i). 150 mg/kg bromelain in water, ii) 150 mg bromelain and rectally administered threonine/sodium butyrate/vitamin D3, iii). 2 mg/kg oral prednisolone or iv). 150 mg bromelain and rectally administered threonine/sodium butyrate/vitamin D3 plus 2 mg/kg oral prednisolone. Endoscopic scores were measured at day 11 and the change in endoscopic score between day 3 and day 11 calculated (FIG. 16).
Groups are i) placebo, ii) 150 mg bromelain in water orally, iii) 150 mg bromelain & 15 mg/kg menthol orally plus GaRP rectally, iv) 150 mg bromelain & 15 mg/kg menthol orally plus GaRP and 2 mg/kg prednisolone rectally, v) 2 mg/kg prednisolone rectally, and vi) GaRP rectally. GaRP is sodium butyrate 185 mg/kg, threonine 280 mg/kg and Vitamin D3 3.84 micrograms per kg. […] The threonine, sodium butyrate and vitamin D3 were formulated and administered as a rectal gavage at the top of the colon to simulate a formulation which releases in the colon; i.e., to achieve administration to the lower intestine.
The subject of assay [2] is TNBS colitis. Description: Histological scoring of colitis in colon sections post treatment (Example 14). The class given is in vivo, C56/BL/6 mice. To be noted: TNBS colitis mice, 2 mg/kg prednisolone.
Description: Colitis was induced and treated C56/BL/6 mice from examples 11 and 12 were euthanised post treatment and the colons sectioned for histopathological analysis. Each bar represents the mean histopathology score for the treatment groups. Values of the number of animals, means, standard deviations and statistical significance relative to placebo are shown in parentheses.
In this example, the colon was fixed, stained and sectioned before being assessed by microscopy in a blinded manner. Colons were examined not only for active disease but evidence of recovery from disease and scored according to the following criteria. Scoring was performed in triplicate blinded to the scorer with a maximum score of 3 in each of 6 categories.
• Hypervascularization (opening of blood vessels) • Presence of mononuclear cells (architecture also disappear) • Epithelial hyperplasia (elongated crypt and villi) • Epithelial injury (loss of epithelial continuity) • Presence of neutrophils • Lymphoid aggregates (scored 0-2) 0,1-2, >2
Data were collated and analysed by student t test for significance against placebo control.

Turning to `C[C@]12C=CC(=O)C=C1CC[C@@H]1[C@@H]2[C@@H](O)C[C@@]2(C)[C@H]1CC[C@]2(O)C(=O)CO` [prednisolone, Prednisolone], the “Mean reduction in endoscopic score” value in assay [1] (TNBS colitis mice, change day 3 to day 11, 2 mg/kg prednisolone) was found to be 4.25. Also, the “mean improvement in endoscopic score at day 11” value in assay [1] (daily treatment from day 3, bromelain 150 mg/kg, menthol 15 mg/kg, prednisolone 2 mg/kg where present, GaRP rectally) was 4.25. In assay [2], the “Histological score of colitis, Mean” value is 3.5.
